We go through 1 compound from patent US20040072848A1, “Methods of treating irritable bowel syndrome and functional dyspepsia” (priority 2003, published 2004).

This experiment concerns Zymosan-sensitized rats. Nature of the experiment: Rodent model of zymosan-induced hyperalgesia: visceromotor response to colorectal distention. It is filed as in vivo, Sprague-Dawley rats. To be noted: two doses (time 0 and 16 h), intracolonic zymosan, CRD 80 mm Hg, 20 s, 4 h after zymosan, expressed as percentage of control, baseline = 100%. How it is done: FIG. 1 is a graphical representation of the results of a study conducted in Zymosan-sensitized rats comparing the effect of (E)-4-(1,3-bis(cyclohexylmethyl)-1,2,3,6-tetrahydro-2,6-dioxo-9H-purin-8-yl)cinnamic acid nonaethylene glycol methyl ether ester ([…] and 25 mg/kg) versus vehicle. Results are reported as response to colorectal distention (CRD) (as a percent of control) with increasing dosage of 0, 12.5, and 25 mg/kg of compound (sensitized --▪--) as compared to baseline (--♦--).
Protocol for Evaluation of (E)-4-(1,3-bis(cyclohexylmethyl)-1,2,3,6-tetrahydro-2,6-dioxo-9H-purin-8-yl)cinnamic acid nonaethylene glycol methyl ether ester in a Rodent Model of Zymosan-Induced Hyperalgesia […]
The descending colon and rectum were distended by pressure-controlled inflation of a 7-8-cm-long flexible latex balloon tied around a flexible tube. […] Intracolonic pressure was continuously monitored by the aid of a pressure control device. Response was, quantified as the visceromotor response (VMR), a contraction of the abdominal and hindlimb musculature. EMG activity produced by contraction of the external oblique musculature was quantified using Spike2 software (Cambridge Electronic Designs). Each distension trial lasted 60 seconds, and EMG activity was quantitated in 1-second bins for 20 seconds before distension (baseline), during distention, and 20 seconds after distention. […]

With `COCCOCCOCCOCCOCCOCCOCCOCCOCCOC(=O)/C=C/c1ccc(-c2nc3c(=O)n(CC4CCCCC4)c(=O)n(CC4CCCCC4)c3[nH]2)cc1` [(E)-4-(1,3-bis(cyclohexylmethyl)-1,2,3,6-tetrahydro-2,6-dioxo-9H-purin-8-yl)cinnamic acid nonaethylene glycol methyl ether ester], the “response to colorectal distention (CRD), visceromotor response” value by setting is: (12.5 mg/kg oral gavage) “decreased the response to colorectal distention down to baseline levels”; (25 mg/kg oral gavage) “decreased the response to colorectal distention down to baseline levels”.
